One block for each compound: values may come before it.
Tests used:
FKBP = target: T1, FKBP (Homo sapiens, UniProt P62942); assay: Competitive fluorescence polarization (FP) assay of binding to FKBP with fluoresceinated FK506 probe AP1491
T1 construct: made in house

FRAP = target: T2, FRAP (Homo sapiens, UniProt P42345+P62942); assay: SEAP reporter assay in HT20-6 cells for binding of rapalog-FKBP complexes to FRAP; assay type: cell-based; settings: serial dilutions, 22 hours, FIG. 15
T2 construct: expressed in transfected cells; host or cells: HT20-6 (clone of human HT1080 fibrosarcoma cells)

[1] = tested on: HT1080 cells expressing myristoylated FRAP-FKBP-Fas or (FKBPx2)-Fas chimeras; assay: Regulated apoptosis of stably transfected HT1080 cells, alamar blue viability; assay type: cell-based, human
[2] = target: FRAP (amino acids 2015-2114) displayed on phage with His6-tagged FKBP (Homo sapiens, UniProt P42345+P62942); assay: Binding enrichment of FRAP display phagemids on His6-flag-FKBP with compound, captured on Ni-NTA agarose; settings: 1 μM His6-flag-FKBP, 2.5 μl of 100 pM compound in 250 μl, 1 hour
transfected HT1080 cells = assay: Rapamycin-dependent production of hGH in nu/nu mice transplanted with transfected HT1080 cells; assay type: in vivo
Excerpt: To transplant transiently transfected cells into mice, 2×10^6 transfected HT1080 cells, were suspended in 100 _l PBS/0.1% BSA/0.1% glucose buffer, and administered into four intramuscular sites (approximately 25 _l per site) on the haunches and flanks of the animals. Control mice received equivalent volume injections of buffer alone.
(§1) The accuracy of the dosing solutions was confirmed by HPLC analysis prior to intravenous administration into the tail veins. […] In addition, other control mice, bearing transfected cells, received only the rapamycin vehicle.
Blood was collected by either anesthetizing or sacrificing mice via CO2 inhalation. Anesthetized mice were used to collect 100 _l of blood by cardiac puncture. The mice were revived and allowed to recover for subsequent blood collections. Sacrificed mice were immediately exsanguinated. Blood samples were allowed to clot for 24 hours, at 4° C., and sera were collected following centrifugation at 1000×g for 15 minutes. Serum hGH was measured by the Boehringer Mannheim non-isotopic sandwich ELISA (Cat No.1 585 878). […] Recommended assay instructions were followed.
Mice were administered transfected HT1080 cells as described above. […] The four remaining doses were given under anesthesia, immediately subsequent to blood collection, at 16, 32, 48, and 64 hours. […]

[3] = target: Lex-FKBP and Lex-FRAP proteins (Homo sapiens, UniProt P42345+P62942); assay: Gel mobility shift assay of rapamycin-dependent DNA binding by Lex-FKBP/Lex-FRAP; assay type: biochemical; settings: increasing amounts of rapamycin, FIG. 14 lanes 2-4
[4] = Pharmacokinetics in nu/nu mice after intravenous administration; assay type: in vivo
Excerpt: as §1

[5] = rapamycin C24 oximes, competitive FP vs AP1491 probe, recombinant FKBP
[6] = C7 rapalog experiment, competitive FP

T1 sequence (P62942 whole entry): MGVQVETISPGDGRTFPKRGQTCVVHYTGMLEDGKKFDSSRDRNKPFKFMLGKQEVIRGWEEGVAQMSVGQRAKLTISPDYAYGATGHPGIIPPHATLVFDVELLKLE
T2 sequence (P42345 2025-2113): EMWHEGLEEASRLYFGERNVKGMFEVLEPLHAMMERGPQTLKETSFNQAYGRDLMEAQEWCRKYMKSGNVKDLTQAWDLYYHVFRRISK
T2 sequence (P62942 2-108): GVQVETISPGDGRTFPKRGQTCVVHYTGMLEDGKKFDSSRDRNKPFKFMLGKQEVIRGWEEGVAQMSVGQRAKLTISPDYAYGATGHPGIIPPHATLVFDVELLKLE
FRAP (amino acids 2015-2114) displayed on phage with His6-tagged FKBP, sequence (P42345 2015-2114): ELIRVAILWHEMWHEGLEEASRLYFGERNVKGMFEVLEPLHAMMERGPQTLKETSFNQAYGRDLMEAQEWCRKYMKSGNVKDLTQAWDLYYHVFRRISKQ
FRAP (amino acids 2015-2114) displayed on phage with His6-tagged FKBP, sequence (P62942 with tags, fused parts or gaps): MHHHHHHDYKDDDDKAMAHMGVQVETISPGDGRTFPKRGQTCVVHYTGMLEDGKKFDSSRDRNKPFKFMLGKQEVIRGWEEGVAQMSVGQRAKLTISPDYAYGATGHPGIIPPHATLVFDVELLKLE
Lex-FKBP and Lex-FRAP proteins, sequence (P62942 2-108): as the sequence (P62942 2-108) above
Lex-FKBP and Lex-FRAP proteins, sequence (P42345 2025-2113): as the sequence (P42345 2025-2113) above

Compound: COC1CC2CCC(C)C(O)(O2)C(=O)C(=O)N2CCCCC2C(=O)OC(C(C)CC2CCC(O)C(OC)C2)CC(=NOCC(=O)O)C(C)C=C(C)C(O)C(OC)C(=O)C(C)CC(C)C=CC=CC=C1C (stereo not drawn) [AP1686, Rapamycin (E and Z)-24-(O-carboxymethyloxime)]
fold loss in affinity (=IC50/IC50 of rapamycin) (FKBP; C24 oxime experiment): 1620 | IC50 (FKBP; [5]): 16200 nM

Compound: CO[C@@H]1CC(C[C@@H](C)C2CC(=O)[C@H](C)/C=C(\C)[C@@H](O)[C@@H](OC)C(=O)[C@H](C)C[C@H](C)/C=C/C=C/C=C(\C)[C@@H](OC(C)C)C[C@@H]3CC[C@@H](C)[C@@](O)(O3)C(=O)C(=O)N3CCCC[C@H]3C(=O)O2)CC[C@H]1O (stereo partly drawn) [AP1700, 7S-isopropoxyrapamycin]
FRAP affinity as indicated by SEAP production (FRAP): modest reduction in FRAP affinity | fold loss in affinity (=IC50/IC50 of rapamycin) (FKBP; C7 rapalog experiment): 2.5 | IC50 (FKBP; [6]): 17.8 nM

Compound: CCC(C)(C)C(=O)C(=O)N1CCCCC1C(=O)O[C@H](CCc1ccc(OC)c(OC)c1)c1cccc(OCC(=O)NCCOCCNC(=O)COc2cccc([C@@H](CCc3ccc(OC)c(OC)c3)OC(=O)C3CCCCN3C(=O)C(=O)C(C)(C)CC)c2)c1 (stereo partly drawn) [AP1428]
extent of cell death of cells expressing a myristoylated (FKBPx2)-Fas construct, relative to rapamycin on M30/M31 cells ([1]; FIG. 13(c)): comparable

Compound: COC1CC2CCC(C)C(O)(O2)C(=O)C(=O)N2CCCCC2C(=O)OC(C(C)CC2CCC(O)C(OC)C2)CC(=NOCC(=O)O)C(C)C=C(C)C(O)C(OC)C(=O)C(C)CC(C)C=CC=CC=C1C (stereo not drawn) [AP1687, Rapamycin (E and Z)-24-(O-carboxymethyloxime)]
fold loss in affinity (=IC50/IC50 of rapamycin) (FKBP; C24 oxime experiment): 813

Compound: COC1CC(CC(C)C2CC(=O)C(C)C=C(C)C(O)C(OC)C(=O)C(C)CC(C)C=CC=CC=C(C)C(c3c[nH]c4ccccc34)CC3CCC(C)C(O)(O3)C(=O)C(=O)N3CCCCC3C(=O)O2)CCC1O (stereo not drawn) [AP1702, 7S-(3-indolyl)rapamycin]
FRAP affinity as indicated by SEAP production (FRAP): almost completely abolish SEAP expression | fold loss in affinity (=IC50/IC50 of rapamycin) (FKBP; C7 rapalog experiment): 3.0 | IC50 (FKBP; [6]): 24.5 nM

Compound: CO[C@H]1C[C@@H]2CC[C@@H](C)[C@@](O)(O2)C(=O)C(=O)N2CCCC[C@H]2C(=O)O[C@H]([C@H](C)C[C@@H]2CC[C@@H](O)[C@H](OC)C2)CC(=O)[C@H](C)/C=C(\C)[C@@H](O)[C@@H](OC)C(=O)[C@H](C)C[C@H](C)/C=C/C=C/C=C/1C [rapamycin, Rapamycin]
serum hGH production vs dose (transfected HT1080 cells; 0.01-10.0 mg/kg i.v., 17 hours after administration, FIG. 6): dose-responsive production of hGH | time of peak serum hGH after treatment (transfected HT1080 cells; single 10.0 mg/kg i.v. dose, FIG. 7): peaked at eight hours | enrichment of FRAP phage compared to the starting mixture [2]: 271 fold | formation of specific protein-DNA complex [3]: concomitant appearance of a specific complex | effect on survival of cells not expressing mixed chimeric proteins ([1]; FIG. 13(c)): minimal effects | survival of cells stably transfected with M30 and M31-expressing constructs ([1]; with 50 ng/ml actinomycin D, about 20 hours, FIG. 13(a),(b)): potently reduced

Compound: hGH: human growth hormone secreted by the engineered cells (reporter gene product)
half-life of clearance from the circulation [4]: less than four minutes

Continued, values first:

fold loss in affinity (=IC50/IC50 of rapamycin) (FKBP; C24 oxime experiment): 40.5 | IC50 (FKBP; [5]): 320 nM
Compound: COC1CC2CCC(C)C(O)(O2)C(=O)C(=O)N2CCCCC2C(=O)OC(C(C)CC2CCC(O)C(OC)C2)CC(=NOCC(N)=O)C(C)C=C(C)C(O)C(OC)C(=O)C(C)CC(C)C=CC=CC=C1C (single isomer, unassigned) [AP1730, Rapamycin (E and Z)-24-(O-carboxamidomethyloxime)]

fold loss in affinity (=IC50/IC50 of rapamycin) (FKBP; C7 rapalog experiment): 20.8 | fold loss in affinity (=IC50/IC50 of rapamycin) (FKBP; C24 oxime experiment): 18.6
Compound: C14-desoxo-rapamycin [reference compound]

enrichment of FRAP phage compared to the starting mixture [2]: 2.4 fold
Compound: C=CC[C@@H]1/C=C(\C)C[C@H](C)C[C@H](OC)[C@H]2O[C@@](O)(C(=O)C(=O)N3CCCC[C@H]3C(=O)O[C@H](/C(C)=C/[C@@H]3CC[C@@H](O)[C@H](OC)C3)[C@H](C)[C@@H](O)CC1=O)[C@H](C)C[C@@H]2OC [FK506]

fold loss in affinity (=IC50/IC50 of rapamycin) (FKBP; C24 oxime experiment): 304 | IC50 (FKBP; [5]): 2400 nM
Compound: COC1CC2CCC(C)C(O)(O2)C(=O)C(=O)N2CCCCC2C(=O)OC(C(C)CC2CCC(O)C(OC)C2)CC(=NOCC(N)=O)C(C)C=C(C)C(O)C(OC)C(=O)C(C)CC(C)C=CC=CC=C1C (single isomer, unassigned) [AP1729, Rapamycin (E and Z)-24-(O-carboxamidomethyloxime)]

Source: patent US20030206891A1, “Rapamycin-based biological regulation” (ARIAD Gene Therapeutics, Inc., priority 1995, published 2003)
